Experiments:
rat [1] = settings: Multigenerational reproductive toxicity study, sprague dawley, Oral, Water, dose end: 2 generation, group: parental
rat [2] = settings: Combined chronic toxicity/carcinogenicity; fischer; Oral; Gavage/Intubation; dose end: 2 year; group: systemic; systemic / in life observation / clinical signs / ataxia + systemic / in life observation / clinical signs / prostration + systemic / in …
mouse [3] = settings: Subchronic oral toxicity in rodents, b6c3f1, Gavage/Intubation, dose end: 13 week, group: systemic
rat [4] = settings: Prenatal developmental toxicity study; sprague dawley; Oral; Gavage/Intubation; dose end: 15 GD; group: maternal; systemic / in life observation / body weight / body weight gain
mouse [5] = settings: Carcinogenicity; b6c3f1; Oral; Gavage/Intubation; dose end: 2 year; group: systemic; systemic / in life observation / body weight / body weight + systemic / in life observation / clinical signs / [other] + systemic / in life …
rat [6] = settings: Subchronic oral toxicity in rodents, fischer, Gavage/Intubation, dose end: 13 week, group: systemic
rat [7] = settings: Subchronic oral toxicity in rodents, fischer, Feed, dose end: 90 day, group: systemic, systemic / in life observation / body weight / body weight gain + systemic / pathology microscopic / kidney / calculus + systemic / …
mouse [8] = settings: Carcinogenicity, b6c3f1, Oral, Feed, dose end: 103 week, group: systemic
mouse [9] = settings: Subchronic oral toxicity in rodents, b6c3f1, Feed, dose end: 13 week, group: systemic
rat [10] = settings: Carcinogenicity, fischer, Oral, Feed, dose end: 103 week, group: systemic
rat [11] = settings: Subchronic oral toxicity in rodents, fischer, Feed, dose end: 13 week, group: systemic
mouse [12] = settings: Subchronic oral toxicity in rodents, b6c3f1, Feed, dose end: 90 day, group: systemic
rat [13] = settings: Developmental neurotoxicity study, sprague dawley, Inhalation, Whole-Body, dose end: 2 generation, group: cannot be grouped
mouse [14] = settings: Carcinogenicity, b6c3f1, Oral, Feed, dose end: 78 week, group: systemic
rat [15] = settings: Carcinogenicity, fischer, Oral, Feed, dose end: 78 week, group: systemic
[16] = systemic / in life observation / body weight / body weight gain + systemic / in life observation / water consumption / water consumption + …
[17] = systemic / organ weight / adrenal gland / absolute + systemic / organ weight / adrenal gland / relative to body weight
[18] = systemic / organ weight / adrenal gland / absolute + systemic / organ weight / adrenal gland / relative to body weight + systemic / in life …
[19] = systemic / in life observation / clinical signs / tremors + systemic / in life observation / mortality / mortality + systemic / organ weight…
[20] = systemic / in life observation / body weight / body weight gain
[21] = systemic / in life observation / body weight / body weight gain + systemic / pathology microscopic / harderian gland / adenoma + systemic / …
[22] = systemic / in life observation / body weight / body weight + systemic / in life observation / body weight / body weight gain + systemic / in…
[23] = systemic / in life observation / body weight / body weight gain + systemic / pathology gross / thyroid gland / enlarged
[24] = systemic / in life observation / body weight / body weight gain + systemic / pathology gross / thyroid gland / enlarged + systemic / …
[25] = systemic / pathology microscopic / thyroid gland / hyperplasia
[26] = systemic / in life observation / body weight / body weight gain + systemic / pathology microscopic / thyroid gland / hyperplasia + systemic…
[27] = systemic / in life observation / body weight / body weight
[28] = systemic / in life observation / body weight / body weight + systemic / pathology microscopic / liver / adenoma/carcinoma combined + …

Work on Oc1cccc(O)c1 [Resorcinol] yielded an LOAEL (rat [1]; [16]) of over 233 mg/kg/day, an NEL (rat [1]; [16]) of 31 mg/kg/day and an NOAEL (rat [1]; [16]) of at least 233 mg/kg/day. For the same molecule, the LEL (rat [1]; systemic / in life observation / water consumption / water consumption) was 86 mg/kg/day, the LEL (rat [2]) was 100 mg/kg/day and the LOAEL (rat [2]) was 100 mg/kg/day. For the same molecule, the NEL (rat [2]) was 50 mg/kg/day, the NOAEL (rat [2]) was 50 mg/kg/day and the LEL (mouse [3]; [17]) was 28 mg/kg/day. The NEL (mouse [3]; [17]) was under 28 mg/kg/day, the LOAEL (mouse [3]; [18]) was over 420 mg/kg/day and the NOAEL (mouse [3]; [18]) was at least 420 mg/kg/day. It also gave an LEL (rat [4]) of 500 mg/kg/day, an LOAEL (rat [4]) of over 500 mg/kg/day and an NEL (rat [4]) of 250 mg/kg/day. The NOAEL (rat [4]) was at least 500 mg/kg/day, the LEL (mouse [5]) was 225 mg/kg/day and the LOAEL (mouse [5]) was 225 mg/kg/day. The NEL (mouse [5]) was 112 mg/kg/day, the NOAEL (mouse [5]) was 112 mg/kg/day and the LOAEL (rat [6]; [19]) was over 520 mg/kg/day. It also gave an NOAEL (rat [6]; [19]) of at least 520 mg/kg/day, an LEL (rat [6]; [17]) of 32 mg/kg/day and an NEL (rat [6]; [17]) of under 32 mg/kg/day.
For Nc1ccc(Oc2ccc(N)cc2)cc1 [4,4'-Oxydianiline], the LEL (rat [7]) was 30 mg/kg/day, the LOAEL (rat [7]) was 30 mg/kg/day and the NEL (rat [7]) was 15 mg/kg/day. For the same molecule, the NOAEL (rat [7]) was 15 mg/kg/day, the LOAEL (mouse [8]; [20]) was 22.5 mg/kg/day and the NOAEL (mouse [8]; [20]) was under 22.5 mg/kg/day. For the same molecule, the LEL (mouse [8]; [21]) was 22.5 mg/kg/day, the NEL (mouse [8]; [21]) was under 22.5 mg/kg/day and the LOAEL (mouse [9]; [22]) was over 557 mg/kg/day. For the same molecule, the NEL (mouse [9]; [22]) was 68 mg/kg/day, the NOAEL (mouse [9]; [22]) was at least 557 mg/kg/day and the LEL (mouse [9]; systemic / in life observation / body weight / body weight + systemic / in life observation / body weight / body weight gain + systemic / …) was 138 mg/kg/day. For the same molecule, the LOAEL (rat [10]; [23]) was 10 mg/kg/day, the NOAEL (rat [10]; [23]) was under 10 mg/kg/day and the LEL (rat [10]; [24]) was 10 mg/kg/day. The NEL (rat [10]; [24]) was under 10 mg/kg/day, the LOAEL (rat [11]; [22]) was over 168 mg/kg/day and the NOAEL (rat [11]; [22]) was at least 168 mg/kg/day. The LEL (rat [11]; [25]) was 27 mg/kg/day, the NEL (rat [11]; [25]) was under 27 mg/kg/day and the LEL (mouse [12]; [20]) was 45 mg/kg/day. The NEL (mouse [12]; [20]) was under 45 mg/kg/day, the LOAEL (mouse [12]; [26]) was 90 mg/kg/day and the NOAEL (mouse [12]; [26]) was 45 mg/kg/day.
For C=Cc1ccccc1 [Styrene], the LEL (rat [13]; systemic / in life observation / body weight / body weight gain + systemic / in life observation / body weight / offspring (pup) weight) was 150 ppm, the NEL (rat [13]; systemic / in life observation / body weight / body weight gain + systemic / in life observation / water consumption / water consumption) was 50 ppm and the LOAEL (rat [13]; [16]) was over 500 ppm. For the same molecule, the NOAEL (rat [13]; [16]) was at least 500 ppm.
Work on CN(C)c1ccc(C(=O)c2ccc(N(C)C)cc2)cc1 [Michler's ketone] yielded an LOAEL (mouse [14]; [27]) of 188 mg/kg/day, an NOAEL (mouse [14]; [27]) of under 188 mg/kg/day and an LEL (mouse [14]; [28]) of 188 mg/kg/day. For the same molecule, the NEL (mouse [14]; [28]) was under 188 mg/kg/day, the LOAEL (rat [15]; [27]) was 12.5 mg/kg/day and the NOAEL (rat [15]; [27]) was under 12.5 mg/kg/day. For the same molecule, the LEL (rat [15]; [28]) was 12.5 mg/kg/day and the NEL (rat [15]; [28]) was under 12.5 mg/kg/day.
